Test results: patent US8710085B2, “Pyrrolidine-1,2-dicarboxamide derivatives” (Novartis AG, priority 2008, dated 2014)

Legend:
[1] = molecular target: T1, PI3Kalpha E545K (Homo sapiens, UniProt P42336, E545K); test: Luciferase luminescence assay (KinaseGlo), PI3Kalpha E545K; format: biochemical; conditions: construct BV1147; 1 μM ATP, 15 min preincubation, 1 h, room temperature; read-out: PI3Kalpha E545K IC50s
T1 construct: made in house; host or cells: baculovirus (vector LR561)
From the text: (§1) Luminescence is a well established readout to determine ATP concentrations and can thus be used to follow the activity of many kinases regardless of their substrate. The KinaseGlo Luminescent Kinase Assay (Promega, Madison/WI, USA) is a homogeneous HTS method of measuring kinase activity by quantifying the amount of ATP remaining in solution following a kinase reaction.

[2] = molecular target: T2, PI3Kδ (Homo sapiens, UniProt O00329); test: PI3K KinaseGlo assay, PI3Kδ; format: biochemical; conditions: 10 nM enzyme, 1 μM ATP, 30 mins, room temperature, read-out: PI3Kd/IC50
T2 construct: p85iSH2(461-568)-GGGGGG-p110δ(2-1044)-His; made in house; host or cells: baculovirus, Tn5 insect cells

[3] = molecular target: T3, PI3Kalpha wild type (Homo sapiens, UniProt P42336); test: Luciferase luminescence assay (KinaseGlo), PI3Kalpha wild type; format: biochemical; conditions: construct BV1075; 1 μM ATP, 15 min preincubation, 1 h, room temperature; read-out: PI3Kalpha wild type IC50s
T3 construct: p110α(21-1068)-His; made in house
From the text: as §1

[4] = molecular target: T4, PI3Kβ (Homo sapiens, UniProt P42338); test: PI3K KinaseGlo assay, PI3Kβ; format: biochemical; conditions: KinaseGlo; 25 nM enzyme, 1 μM ATP, 30 mins, room temperature; read-out: PI3Kb/IC50
T4 construct: p110β(2-1070)-His; made in house; host or cells: baculovirus, Tn5 insect cells
Description: (§2) PI3K KinaseGlo assay: 50 mL of compound dilutions were dispensed onto black 384-well low volume Non Binding Styrene (NBS) plates (Costar Cat. No. NBS#3676). L-a-phosphatidylinositol (PI), provided as 10 mg/ml solution in methanol, was transferred into a glass tube and dried under nitrogen beam. It was then resuspended in 3% OctylGlucoside (OG) by vortexing and stored at 4° C. The KinaseGlo Luminescent Kinase Assay (Promega, Madison/WI, USA) is a homogeneous HTS method of measuring kinase activity by quantifying the amount of ATP remaining in solution following a kinase reaction.
(§3) 5 μL of a mix of PI/OG with the PI3K subtype were added (Table 1). Kinase reactions were started by addition of 5 μl of ATP-mix containing in a final volume 10 μL 10 mM TRIS-HCl pH 7.5, 3 mM MgCl2, 50 mM NaCl, 0.05% CHAPS, 1 mM DTT and 1 μM ATP, and occurred at room temperature. […] The standard was used as a reference compound and included in all assay plates in the form of 16 dilution points in duplicate.
The PI3Kα, PI3Kβ and PI3Kδ constructs are fusion of p85α iSH2 domain and the respective p110 isoforms. The p85α fragment and p110 isoform genes were generated by PCR from first strand cDNA generated by RT-PCR from commercial RNA from placenta, testis and brain as described below. The PI3Kγ construct was obtained from Roger Williams lab, MRC Laboratory of Molecular Biology, Cambridge, UK (November, 2003) and is described (Pacold, Michael E.; Suire, Sabine; Perisic, Olga; Lara-Gonzalez, Samuel; Davis, Colin T.; Walker, Edward H.; Hawkins, Phillip T.; Stephens, Len; Eccleston, John F.; Williams, Roger L. Crystal structure and functional analysis of Ras binding to its effector phosphoinositide 3-kinase gamma. Cell (2000), 103(6), 931-943).
BV949: PCR products for the inter SH2 domain (iSH2) of the p85 PI3Kα, PI13Kβ and PI3Kδ subunit and for the full-length p110β subunit were generated and fused by overlapping PCR. […] The p11013 fragment was obtained by PCR using as template a p110β clone (from unknown source that was sequence verified) using primers gwG130-p04 (5′-[…]-[…]-3′) (SEQ ID NO: 9) which contains linker sequences and the 5′ end of p110β and gwG130-p06 (5′-[…]-[…]-3′) (SEQ ID NO: 10) which contains sequences of the 3′ end of p110-β fused to a Histidine tag. […] This final product was recombined in a Gateway (Invitrogen) […] into the donor vector pDONR201 (Invitrogen) to generate the ORF253 entry clone. This clone was verified by sequencing and used in a Gateway LR reaction (Invitrogen) to transfer the insert into the Gateway adapted pBlueBac4.5 (Invitrogen) vector for generation of the baculovirus expression vector LR280.
(§4) PI3Kα, PI3Kβ and PI3Kγ were purified in two chromatographic steps: immobilized metal affinity chromatography (IMAC) on a Ni sepharose resin (GE Healthcare) and gel filtration utilizing a Superdex 200 26/60 column (GE Healthcare). All buffers were chilled to 4° C. and lysis was performed chilled on ice. Column fractionation was performed at room temperature. All buffers used to purify PI3Kβ contained 0.05% Triton X100 in addition to what is described below.
The lysate was centrifuged at 45,000 g for 30 minutes, and the supernatant was loaded onto a pre-equilibrated IMAC column (3 mL resin/100 mL lysate). […] Protein was eluted with 20 mM Tris-Cl, pH 7.5, 0.5 M NaCl, 5% glycerol, 250 mM imidazole, 1 mM NaF, 0.1 μg/mL OAA, 5 mM BME, 1× Complete protease inhibitor cocktail—EDTA-free. Pertinent fractions were analyzed by SDS-PAGE and pooled accordingly. The protein was further purified by gel filtration on a Superdex 200 26/60 column equilibrated in 20 mM Tris-Cl, pH 7.5, 0.5 M NaCl, 5% glycerol, 1 mM NaF, 5 mM DTT, 1× Complete protease inhibitor cocktail—EDTA-free. Pertinent fractions were analyzed by SDS-PAGE and pooled accordingly.

[5] = molecular target: T5, PI3Kalpha H1047R (Homo sapiens, UniProt P42336, H1047R); test: Luciferase luminescence assay (KinaseGlo), PI3Kalpha H1047R; format: biochemical; conditions: construct BV1097; 1 μM ATP, 15 min preincubation, 1 h, room temperature; read-out: PI3Kalpha H1047R IC50s
T5 construct: made in house; host or cells: baculovirus (vector LR480)
From the text: as §1

[6] = molecular target: T6, PI3Kγ (Homo sapiens, UniProt P48736, Q459R); test: PI3K KinaseGlo assay, PI3Kγ; format: biochemical; conditions: 150 nM enzyme, 1 μM ATP, 90 mins, room temperature, read-out: PI3Kg/IC50
T6 construct: p110γ(Δ143-[Met144-1102])-His; made in house; host or cells: Tn5 insect cells; construct from Roger Williams lab, MRC LMB
Description: as §2, with “L-a-phosphatidylinositol” for “PI3K KinaseGlo assay: 50 mL of compound dilutions were dispensed onto black 384-well low volume Non Binding Styrene (NBS) plates (Costar Cat. No. NBS#3676). L-a-phosphatidylinositol”
as §3, with “duplicate. […]” for “duplicate.”
as §4
The lysate was centrifuged at 45,000 g for 30 minutes, and the supernatant was loaded onto a pre-equilibrated IMAC column (3 mL resin/100 mL lysate). […] Protein was eluted with 20 mM Tris-Cl, pH 7.5, 0.5 M NaCl, 5% glycerol, 250 mM imidazole, 1 mM NaF, 0.1 μg/mL OAA, 5 mM BME, 1× Complete protease inhibitor cocktail—EDTA-free. Pertinent fractions were analyzed by SDS-PAGE and pooled accordingly. The protein was further purified by gel filtration on a Superdex 200 26/60 column equilibrated in 20 mM Tris-Cl, pH 7.5, 0.5 M NaCl, 5% glycerol, 1 mM NaF, 5 mM DTT, 1× Complete protease inhibitor cocktail—EDTA-free. Pertinent fractions were analyzed by SDS-PAGE and pooled accordingly. An equal volume of Dialysis Buffer (20 mM Tris-Cl, pH 7.5, 500 mM NaCl, 50% glycerol, 5 mM NaF, 5 mM DTT) was added to the pool and than dialyzed against Dialysis Buffer two changes (one change overnight). Protein was stored at −20° C.

[7] = molecular target: T7, PI3Kα (Homo sapiens, UniProt P42336); test: PI3K KinaseGlo assay, PI3Kα; format: biochemical; conditions: KinaseGlo; 10 nM enzyme, 1 μM ATP, 30 mins, room temperature; read-out: PI3Ka/IC50
T7 construct: p110α(21-1068)-His; made in house; host or cells: baculovirus, Tn5 insect cells

[8] = In vitro metabolic clearance, rat liver microsomes (CYP MetCL-Ra); format: in vitro ADME; conditions: rat liver microsomes 0.5 mg/mL, test article 1.0 μM, NADPH, 37° C.; read-out: CYP MetCL-Ra/CL(int)
Description: (§5) Final test article and protein concentrations, as well as incubation duration, are shown below (Table 1). Low test article concentrations were selected to comply with the assumption that reaction kinetics are evaluated at a concentration less than (or approximately equal to) Km. DMSO is known to have an inhibitory effect on CYP activity. Therefore, the concentration of DMSO in the incubation media has been restricted to 0.01% (v/v) so that interference to the metabolic process is minimized.
(§6) A typical experiment is performed in 96-well format with shaking incubation at 37° C. […] A 30 minutes negative control incubation (minus cofactor) is also performed to assess CYP-unrelated stability issues (eg, chemical instability, CYP-independent metabolism).
In general, TA's in 10 mM DMSO are diluted 1:1000 into 0.6% ACN (v/v) in DiH20 to 10 μM. […] For evaluation of UGT-mediated metabolism, the suspension may be first pretreated by 5 min incubation on ice with alamethicin (25 μg/mg of microsomal protein). […]
(§7) The bulk reactions for the remaining time points are initiated by addition of 125 μL of cofactor solution (2 mM NADPH in 50 mM KPi plus 4 mM MgCl2) to the remaining 125 μL of enzyme.substrate mixture. […] All the samples are centrifuged at ˜3400×g at 4° C. for 10 min and the supernatants are analyzed by LC-MS/MS for quantitation of remaining TA. […]

[9] = In vitro metabolic clearance, human liver microsomes (CYP MetCL-Hu); format: in vitro ADME; conditions: human liver microsomes 0.5 mg/mL, test article 1.0 μM, NADPH, 37° C.; read-out: CYP MetCL-Hu/CL(int)
Description: as §5, §6
In general, TA's in 10 mM DMSO are diluted 1:1000 into 0.6% ACN (v/v) in DiH20 to 10 μM. […] For evaluation of UGT-mediated metabolism, the suspension may be first pretreated by 5 min incubation on ice with alamethicin (25 μg/mg of microsomal protein). TA (35 μL) is added to 140 μL of the microsomal suspensions for 175 μL enzymesubstrate mixture. […] The 30 min negative control incubation is processed by combining 25 μL of enzyme.substrate mixture with an equal volume of 50 mM KPi containing 4 mM MgCl2. Following a 30 minute incubation at 37° C., the mix is quenched by adding 50 μL of ACN containing the MS internal standard (2 μM alprenolol). The T=0 min time point is processed by combining 25 μL of enzyme.substrate mixture directly with 50 μL of ACN containing the MS internal standard (2 μM alprenolol). 25 μL of the cofactor solution is added (2 mM NADPH in 50 mM KPi plus 4 mM MgCl2; optionally including 2 mM UDPGA for CYP+UGT assays) to simulate the complete quenched reaction mixture.
as §7

T1 sequence (P42336 with tags, fused parts or gaps E545K): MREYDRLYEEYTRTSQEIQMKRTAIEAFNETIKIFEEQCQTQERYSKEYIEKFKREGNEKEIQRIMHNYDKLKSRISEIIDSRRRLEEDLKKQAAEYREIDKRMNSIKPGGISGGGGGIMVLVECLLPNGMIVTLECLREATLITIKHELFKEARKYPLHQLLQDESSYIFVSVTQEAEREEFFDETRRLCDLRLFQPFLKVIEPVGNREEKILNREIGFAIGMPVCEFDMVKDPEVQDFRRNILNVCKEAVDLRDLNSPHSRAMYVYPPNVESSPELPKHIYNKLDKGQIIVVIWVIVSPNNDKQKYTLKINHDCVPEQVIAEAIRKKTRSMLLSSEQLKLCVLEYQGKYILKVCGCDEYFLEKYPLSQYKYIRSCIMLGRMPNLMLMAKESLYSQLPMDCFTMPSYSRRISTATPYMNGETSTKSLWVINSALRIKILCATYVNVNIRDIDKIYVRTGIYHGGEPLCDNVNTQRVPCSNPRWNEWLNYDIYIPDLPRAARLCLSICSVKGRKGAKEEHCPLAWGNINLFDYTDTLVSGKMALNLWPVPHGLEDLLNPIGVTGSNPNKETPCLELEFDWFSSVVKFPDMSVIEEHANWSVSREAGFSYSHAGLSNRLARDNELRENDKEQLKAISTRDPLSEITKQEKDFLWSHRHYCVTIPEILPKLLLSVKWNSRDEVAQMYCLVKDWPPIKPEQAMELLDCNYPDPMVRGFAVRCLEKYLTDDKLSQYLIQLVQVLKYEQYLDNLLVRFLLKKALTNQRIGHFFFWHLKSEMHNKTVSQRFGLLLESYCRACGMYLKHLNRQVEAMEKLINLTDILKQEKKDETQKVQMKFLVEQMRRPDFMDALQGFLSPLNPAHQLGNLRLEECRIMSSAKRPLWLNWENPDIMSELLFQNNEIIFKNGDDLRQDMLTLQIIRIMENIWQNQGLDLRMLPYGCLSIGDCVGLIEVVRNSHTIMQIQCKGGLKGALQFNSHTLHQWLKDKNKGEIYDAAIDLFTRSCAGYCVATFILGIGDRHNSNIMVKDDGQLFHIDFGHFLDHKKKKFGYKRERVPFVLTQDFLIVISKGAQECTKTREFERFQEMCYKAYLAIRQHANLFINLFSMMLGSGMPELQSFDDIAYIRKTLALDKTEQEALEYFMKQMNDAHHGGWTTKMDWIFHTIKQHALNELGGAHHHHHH
T2 sequence (O00329 with tags, fused parts or gaps): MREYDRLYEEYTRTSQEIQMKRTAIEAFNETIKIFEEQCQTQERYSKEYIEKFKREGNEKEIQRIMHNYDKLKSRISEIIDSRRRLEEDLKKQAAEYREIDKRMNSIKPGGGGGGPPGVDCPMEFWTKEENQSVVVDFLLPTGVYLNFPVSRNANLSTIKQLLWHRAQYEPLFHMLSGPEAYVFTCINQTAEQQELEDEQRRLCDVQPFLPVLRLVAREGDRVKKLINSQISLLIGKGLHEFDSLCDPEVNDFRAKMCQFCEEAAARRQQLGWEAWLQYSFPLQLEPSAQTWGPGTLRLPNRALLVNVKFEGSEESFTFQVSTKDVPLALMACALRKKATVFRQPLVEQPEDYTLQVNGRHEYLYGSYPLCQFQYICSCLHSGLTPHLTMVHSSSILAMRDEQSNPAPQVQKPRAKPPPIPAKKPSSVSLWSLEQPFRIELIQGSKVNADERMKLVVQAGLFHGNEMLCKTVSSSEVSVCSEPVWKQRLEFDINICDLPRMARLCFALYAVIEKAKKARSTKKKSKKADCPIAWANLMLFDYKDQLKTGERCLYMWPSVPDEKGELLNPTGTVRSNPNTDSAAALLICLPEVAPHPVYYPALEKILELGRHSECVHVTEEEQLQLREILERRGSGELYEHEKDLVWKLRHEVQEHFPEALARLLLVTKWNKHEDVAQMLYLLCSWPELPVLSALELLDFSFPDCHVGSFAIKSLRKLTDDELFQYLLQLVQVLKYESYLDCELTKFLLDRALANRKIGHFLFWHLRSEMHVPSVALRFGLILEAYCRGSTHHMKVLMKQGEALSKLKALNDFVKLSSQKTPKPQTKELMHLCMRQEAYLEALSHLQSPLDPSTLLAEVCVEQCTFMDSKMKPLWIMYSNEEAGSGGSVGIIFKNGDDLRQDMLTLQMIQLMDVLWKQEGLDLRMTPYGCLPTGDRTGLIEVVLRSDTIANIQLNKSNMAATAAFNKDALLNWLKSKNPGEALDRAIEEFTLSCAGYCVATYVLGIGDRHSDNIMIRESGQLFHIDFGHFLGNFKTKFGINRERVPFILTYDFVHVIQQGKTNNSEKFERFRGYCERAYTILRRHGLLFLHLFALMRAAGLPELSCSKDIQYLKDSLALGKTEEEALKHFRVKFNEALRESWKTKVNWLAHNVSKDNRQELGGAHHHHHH
T6 sequence (P48736 with tags, fused parts or gaps Q459R): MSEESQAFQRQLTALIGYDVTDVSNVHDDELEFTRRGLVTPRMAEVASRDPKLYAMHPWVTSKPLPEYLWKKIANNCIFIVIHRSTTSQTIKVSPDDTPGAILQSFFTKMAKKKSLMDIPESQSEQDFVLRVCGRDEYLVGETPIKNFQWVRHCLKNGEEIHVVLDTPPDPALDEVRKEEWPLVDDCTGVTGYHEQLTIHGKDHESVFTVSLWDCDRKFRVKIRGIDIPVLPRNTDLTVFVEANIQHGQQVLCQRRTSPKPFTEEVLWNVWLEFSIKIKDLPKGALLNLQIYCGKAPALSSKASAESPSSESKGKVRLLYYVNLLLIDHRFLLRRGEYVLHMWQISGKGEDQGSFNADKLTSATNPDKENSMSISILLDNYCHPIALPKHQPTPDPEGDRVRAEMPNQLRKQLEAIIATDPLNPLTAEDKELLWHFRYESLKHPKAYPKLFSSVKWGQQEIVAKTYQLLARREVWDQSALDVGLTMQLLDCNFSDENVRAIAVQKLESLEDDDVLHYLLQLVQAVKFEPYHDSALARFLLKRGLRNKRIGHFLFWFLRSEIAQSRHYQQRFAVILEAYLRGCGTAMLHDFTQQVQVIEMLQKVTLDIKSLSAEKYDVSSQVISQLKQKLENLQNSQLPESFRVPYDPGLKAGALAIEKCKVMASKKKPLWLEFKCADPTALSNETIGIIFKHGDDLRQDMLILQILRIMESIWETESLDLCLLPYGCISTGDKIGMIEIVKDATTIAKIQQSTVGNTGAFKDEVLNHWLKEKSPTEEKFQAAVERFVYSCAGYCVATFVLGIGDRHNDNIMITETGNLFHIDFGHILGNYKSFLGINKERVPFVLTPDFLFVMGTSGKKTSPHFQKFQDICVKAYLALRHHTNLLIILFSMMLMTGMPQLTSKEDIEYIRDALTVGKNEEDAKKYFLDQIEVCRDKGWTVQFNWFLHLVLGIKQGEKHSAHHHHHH
T4 sequence (P42338 with tags, fused parts or gaps): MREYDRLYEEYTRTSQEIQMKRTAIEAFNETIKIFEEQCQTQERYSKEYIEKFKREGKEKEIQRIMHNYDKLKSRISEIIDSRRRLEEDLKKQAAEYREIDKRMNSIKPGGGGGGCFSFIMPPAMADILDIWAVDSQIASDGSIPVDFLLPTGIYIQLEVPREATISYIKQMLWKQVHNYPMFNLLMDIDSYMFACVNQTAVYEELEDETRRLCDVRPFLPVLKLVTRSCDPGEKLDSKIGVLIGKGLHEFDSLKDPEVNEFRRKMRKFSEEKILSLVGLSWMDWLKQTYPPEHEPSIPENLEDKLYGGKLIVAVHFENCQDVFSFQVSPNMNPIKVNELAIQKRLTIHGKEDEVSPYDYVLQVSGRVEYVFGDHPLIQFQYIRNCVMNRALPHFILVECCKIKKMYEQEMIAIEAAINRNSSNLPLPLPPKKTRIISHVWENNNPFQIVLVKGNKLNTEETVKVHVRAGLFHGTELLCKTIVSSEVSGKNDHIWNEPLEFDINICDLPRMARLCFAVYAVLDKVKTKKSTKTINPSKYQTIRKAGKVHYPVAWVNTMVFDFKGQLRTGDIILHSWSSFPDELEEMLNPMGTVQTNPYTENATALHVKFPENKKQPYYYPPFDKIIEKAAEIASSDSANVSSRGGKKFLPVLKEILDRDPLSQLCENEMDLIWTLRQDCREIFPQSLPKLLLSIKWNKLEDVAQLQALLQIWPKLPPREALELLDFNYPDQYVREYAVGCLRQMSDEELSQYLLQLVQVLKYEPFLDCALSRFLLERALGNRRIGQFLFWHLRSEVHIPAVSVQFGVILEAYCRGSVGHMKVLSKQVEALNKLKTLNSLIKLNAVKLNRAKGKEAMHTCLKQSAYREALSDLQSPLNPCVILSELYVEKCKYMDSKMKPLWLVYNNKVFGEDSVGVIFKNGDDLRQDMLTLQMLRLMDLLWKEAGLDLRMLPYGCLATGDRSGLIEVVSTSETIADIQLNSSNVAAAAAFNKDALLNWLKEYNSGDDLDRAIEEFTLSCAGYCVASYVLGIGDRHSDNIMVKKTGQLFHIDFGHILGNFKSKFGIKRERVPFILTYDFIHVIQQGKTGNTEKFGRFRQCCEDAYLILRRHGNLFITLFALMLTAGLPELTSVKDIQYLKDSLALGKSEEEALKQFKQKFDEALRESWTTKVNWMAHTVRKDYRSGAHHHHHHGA
T5 sequence (P42336 with tags, fused parts or gaps H1047R): as the sequence (P42336 with tags, fused parts or gaps E545K) above, with K646E, H1148R counted along it
T7 sequence (P42336 with tags, fused parts or gaps): as the sequence (P42336 with tags, fused parts or gaps E545K) above, with I112G, S113G, I119G, M120G, V121G, K646E counted along it
T3 sequence (P42336 with tags, fused parts or gaps): as the sequence (P42336 with tags, fused parts or gaps E545K) above, with I112G, S113G, I119G, M120G, V121G, K646E counted along it

Structure (SMILES)	IC50 [1]	IC50 [2]	IC50 [3]	IC50 [4]	IC50 [5]	IC50 [6]	IC50 [7]	microsomal CLint at 1 μM [8]	microsomal CLint at 1 μM [9]
Cc1nc(NC(=O)N2CCC[C@H]2C(N)=O)sc1-c1ccnc(C2(C)CC2)c1 [Example 5, (S)-Pyrrolidine-1,2-dicarboxylic acid 2-amide 1-({4-methyl-5-[2-(1-methylcyclopropyl)-pyridin-4-yl]-thiazol-2-yl}-amide)]	6.7 nM	648 nM	8.2 nM	3900 nM	7.7 nM	2050 nM	44 nM		
Cc1nc(NC(=O)N2CCC[C@H]2C(N)=O)sc1-c1ccnc(C(C)(CF)CF)c1 [Example 55, (S)-Pyrrolidine-1,2-dicarboxylic acid 2-amide 1-({5-[2-(2-fluoro-1-fluoromethyl-1-methyl-ethyl)-pyridin-4-yl]-4-methyl-thiazol-2-yl}-amide)]								29 µL/min/mg	27 µL/min/mg
